Test results as given in patent US20240181014A1 (priority 2021, published 2024).
Where two headings read alike, the source gives them in different places.

How the values were obtained:
[1] = compounded ALA (injection, suppository, topical, troche; intravenous); cited from earlier work
[2] = tested on: post-COVID-19 syndrome patients; type: in vivo, human

Row | Compound | safety concerns in available clinical reports [1] | blood oxygenation value pO2 at end of treatment ([2]; Example 4, patient) | status at control visit ([2]; Example 4, patient) | external oxygen supply ([2]; Example 4, patient, needed intermitted oxygenation before) | blood oxygenation value pO2 at room air ([2]; Example 4, patient, pO2 92 mmHg before) | breathing at end of treatment ([2]; Example 4, patient, severe difficulties to breath before) | breathing at end of treatment ([2]; Example 5, patient) | status at control visit ([2]; Example 5, patient) | blood oxygenation value pO2 at room air at end of treatment ([2]; Example 5, patient, pO2 93 mmHg before) | ability to work at end of treatment ([2]; Example 5, patient, unable to work due to extreme fatigue and cough before)
1 | O=C(O)CCCC[C@@H]1CCSS1 [ALA, (R)-5-(1,2-Dithiolan-3-yl)pentanoic acid] | no serious safety concerns |  |  |  |  |  |  |  |  | 
2 | CC[C@H](C)[C@H](NC(=O)[C@H](CO)NC(=O)[C@H](CC(N)=O)NC(=O)[C@H](CC(C)C)NC(=O)[C@H](Cc1ccc(O)cc1)NC(=O)[C@H](CCCCN)NC(=O)[C@H](CCCCN)NC(=O)[C@@H](NC(=O)[C@H](C)NC(=O)[C@H](CCSC)NC(=O)[C@H](CCC(N)=O)NC(=O)[C@H](CCCCN)NC(=O)[C@H](CCCNC(=N)N)NC(=O)[C@H](CC(C)C)NC(=O)[C@H](CCCNC(=N)N)NC(=O)[C@@H](NC(=O)[C@H](Cc1ccc(O)cc1)NC(=O)[C@H](CC(N)=O)NC(=O)[C@H](CC(=O)O)NC(=O)[C@@H](NC(=O)[C@H](Cc1ccccc1)NC(=O)[C@@H](NC(=O)[C@H](C)NC(=O)[C@H](CC(=O)O)NC(=O)[C@H](CO)NC(=O)[C@@H](N)Cc1c[nH]cn1)C(C)C)[C@@H](C)O)[C@@H](C)O)C(C)C)C(=O)N[C@@H](CC(C)C)C(=O)N[C@@H](CC(N)=O)C(N)=O [Aviptadil] |  | 97 mmHg | considered healthy | off external oxygen supply | 96 mmHg | breathed normally | breathed normally | considered healthy without any further post-COVID symptoms | 98 mmHg | returned to their professional work
